Measured values: patent US20240173333A1, “Treating Alagille Syndrome (ALGS)” (priority 2022, published 2024)

Tests used:
[1] = system: patients with Alagille syndrome (ALGS); experiment: ASSERT: Clinician Xanthoma Scale; format: in vivo, human
Protocol: Clinical Assessment of Xanthoma. Changes in xanthoma as assessed by the Clinician Xanthoma Scale were measured at randomization (Study Day 1), Week 12, and Week 24/EOT visits. The clinician's assessment of the participant's xanthomatosis was focused on the number of lesions present and the degree to which the participant's lesions interfered or limited activities.

[2] = system: patients with Alagille syndrome (ALGS); experiment: Pooled ASSERT and ASSERT-EXT: hepatic parameters (ALT, AST, GGT, total bilirubin); format: in vivo, human
Protocol: In the completed 24-week ASSERT study, patients with ALGS with history of significant pruritus and elevated serum BAs were randomized 2:1 to once-daily odevixibat 120 μg/kg or placebo, respectively. Patients who completed ASSERT could enter ASSERT-EXT, an ongoing, 72-week open-label extension study in which all patients receive odevixibat 120 μg/kg/day. This pooled analysis included all odevixibat-treated patients from ASSERT and/or ASSERT-EXT and spans from patients' first dose of odevixibat to a data cut-off of Sep. 9, 2022. Assessments over up to 36 weeks of treatment included change in observer-reported scratching scores and sleep parameters, as well as levels of serum BAs, autotaxin (a proposed meditator of pruritus), and 7 alpha-hydroxy-4-cholesten-3-one (C4; a marker of bile acid synthesis). Safety evaluations included assessment of alanine aminotransferase (ALT), total bilirubin, and treatment-emergent adverse events (TEAEs).
Patients who completed ASSERT could enter ASSERT-EXT, an ongoing 72-week extension study in which all patients received odevixibat 120 μg/kg/day. This pooled analysis spans from patients' first dose of odevixibat in ASSERT and/or ASSERT-EXT to a data cutoff at the end of the 72 week period; data from patients who received placebo in ASSERT are also presented for comparison. In both studies, laboratory assessments included measurement of serum alanine transaminase (ALT), Aspartate transaminase (AST), Gamma-glutamyltransferase (GGT), and total bilirubin levels. Caregivers rated patient pruritus using the PRUCISION™ instrument.

CCCCC1(CCCC)CN(c2ccccc2)c2cc(SC)c(OCC(=O)N[C@@H](C(=O)N[C@@H](CC)C(=O)O)c3ccc(O)cc3)cc2S(=O)(=O)N1 [odevixibat, 1,1-dioxo-3,3-dibutyl-5-phenyl-7-methylthio-8-(N-{(R)-α-[N-((S)-1-carboxypropyl)carbamoyl]-4-hydroxybenzyl}carbamoylmethoxy)-2,3,4,5-tetrahydro-1,2,5-benzothiadiazepine]
patients with no change from baseline to week 24 in xanthomas ([1]; 27/35, incl. 25 patients without xanthomas at any time point): 77%
patients showing improvements in xanthomas ([1]; baseline to week 24, n=35): 20%
patients whose Clinician Xanthoma Scale score increased (from 0 to 1) ([1]; baseline to week 24, n=35): 3%
ALT, Mean (SD), Change to week 48 ([2]; n=9): 64 (102) U/L
AST, Mean (SD), Change to week 48 ([2]; n=9): 37 (72) U/L
GGT, Mean (SD), Change to week 48 ([2]; n=9): 2 (238) U/L
Total bilirubin, Mean (SD), Change to week 48 ([2]; n=9): −1 (16) μmol/L
ALT, Mean (SD), Change to week 36 ([2]; n=15): 79 (91) U/L
AST, Mean (SD), Change to week 36 ([2]; n=16): 67 (66) U/L
GGT, Mean (SD), Change to week 36 ([2]; n=16): 101 (149) U/L
Total bilirubin, Mean (SD), Change to week 36 ([2]; n=16): 10 (37) μmol/L
ALT, Mean (SD), Change to week 24 ([2]; n=37): 57 (81) U/L
AST, Mean (SD), Change to week 24 ([2]; n=37): 43 (89) U/L
GGT, Mean (SD), Change to week 24 ([2]; n=37): 107 (170) U/L
Total bilirubin, Mean (SD), Change to week 24 ([2]; n=37): −1 (19) μmol/L
AST, Mean (SD), Change to week 12 ([2]; n=42): 36 (67) U/L
ALT, Mean (SD), Change to week 12 ([2]; n=43): 63 (82) U/L
GGT, Mean (SD), Change to week 12 ([2]; n=44): 97 (178) U/L
Total bilirubin, Mean (SD), Change to week 12 ([2]; n=44): −3 (32) μmol/L
ALT, Mean (SD), Change to week 4 ([2]; n=46): 55 (71) U/L
AST, Mean (SD), Change to week 4 ([2]; n=46): 40 (67) U/L
GGT, Mean (SD), Change to week 4 ([2]; n=46): 79 (191) U/L
Total bilirubin, Mean (SD), Change to week 4 ([2]; n=46): −4 (19) μmol/L
ALT, Mean (SD), Baseline ([2]; n=52, before odevixibat): 173 (79) U/L
AST, Mean (SD), Baseline ([2]; n=52, before odevixibat): 164 (76) U/L
GGT, Mean (SD), Baseline ([2]; n=52, before odevixibat): 441 (329) U/L
Total bilirubin, Mean (SD), Baseline ([2]; n=52, before odevixibat): 56 (49) μmol/L
concurrent total bilirubin levels in the 4 patients with AST/ALT >3×BL ([2]; pooled): < 2 times the baseline level
patients with on-treatment elevations in ALT and total bilirubin that met Hy's law criteria ([2]; pooled): No patients
patients with potentially clinically significant elevations in AST and/or ALT to >3 times the baseline level ([2]; pooled, n=52): 4 patients
